Experimental data from EP2951180B1, “2,6,7,8 SUBSTITUTED PURINES AS HDM2 INHIBITORS” (Merck Sharp & Dohme Corp., priority 2013, dated 2014).

The compounds below were run against T1, HDM2 (Homo sapiens, UniProt Q00987) (assay: HDM2 FRET assay (inhibition of binding of FITC labeled p53-pocket peptide to HDM2)). Details: Table 20; read-out: FRET IC50.
T1 construct: Thioredoxin (N); made in house; host or cells: E. coli strain BL21(DE3)Rosetta
Outline: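 Final: 0.5 nM His-HDM2, 3 nM FITC peptide, 0.25 nM Tb anti-His Ab; PBS, 0.01% BSA, 0.01% Tween-20; 0.1% DMSO.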

T1 sequence (Q00987 17-125): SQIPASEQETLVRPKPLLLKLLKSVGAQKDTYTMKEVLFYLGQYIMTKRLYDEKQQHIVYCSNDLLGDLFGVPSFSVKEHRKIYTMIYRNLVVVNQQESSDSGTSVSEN

In order of falling IC50:
1. C[C@H]1CC[C@H](Cn2c(C3(c4ccccc4)CCC3)nc3nc(-c4n[nH]c(=O)o4)nc(-c4cc(Cl)c[n+]([O-])c4)c32)CC1 [Example 20.13, 5-[6-(5-chloro-1-oxidopyridin-3-yl)-7-[(trans-4-methylcyclohexyl)methyl]-8-(1-phenylcyclobutyl)-7H-purin-2-yl]-1,3,4-oxadiazol-2(3H)-one]  22.8 nM
2. COc1ncc(Cl)cc1-c1nc(-c2noc(=O)[nH]2)nc2nc(C3(c4ccccc4)CCC3)n(C[C@H]3CC[C@H](C)CC3)c12 [Example 20.14, 3-[6-(5-chloro-2-methoxypyridin-3-yl)-7-[(trans-4-methylcyclohexyl)methyl]-8-(1-phenylcyclobutyl)-7H-purin-2-yl]-1,2,4-oxadiazol-5(4H)-one]  6.11 nM

Same assay, conditions: Table 21; read-out: FRET IC50

In order of rising IC50:
1. C=C(c1nc2nc(-c3noc(=O)[nH]3)nc(N[C@H](C)C3CCC3)c2n1C[C@H]1CC[C@H](C)CC1)C1CCCCC1 [Example 21.19, 3-(6-{[(1R)-1-cyclobutylethyl]amino}-8-(1-cyclohexylethenyl)-7-[(trans-4-methylcyclohexyl)methyl]-7H-purin-2-yl)-1,2,4-oxadiazol-5(4H)-one]  0.931 nM
2. C=C(c1ccc(F)cc1)c1nc2nc(-c3noc(=O)[nH]3)nc(N[C@H](C)C3CCC3)c2n1C[C@H]1CC[C@H](C)CC1 [Example 21.30, 3-(6-{[(1R)-1-cyclobutylethyl]amino}-8-[1-(4-fluorophenyl)ethenyl]-7-[(trans-4-methylcyclohexyl)methyl]-7H-purin-2-yl)-1,2,4-oxadiazol-5(4H)-one]  1.84 nM
3. C[C@@H](Nc1nc(-c2noc(=O)[nH]2)nc2nc(/C=C/c3ccccc3)n(C[C@H]3CC[C@H](C)CC3)c12)C1CCC1 [Example 21.20, 3-(6-{[(1R)-1-cyclobutylethyl]amino}-7-[(trans-4-methylcyclohexyl)methyl]-8-[(E)-2-phenylethenyl]-7H-purin-2-yl)-1,2,4-oxadiazol-5(4H)-one]  1.89 nM
4. C=C(c1ccccc1)c1nc2nc(-c3noc(=O)[nH]3)nc(N[C@H](C)C3CCC3)c2n1C[C@H]1CC[C@H](C)CC1 [Example 21.13, 3-[6-{[(1R)-1-cyclobutylethyl]amino}-7-[(trans-4-methylcyclohexyl)methyl]-8-(1-phenylethenyl)-7H-purin-2-yl]-1,2,4-oxadiazol-5(4H)-one]  1.9 nM
5. C[C@@H](Nc1nc(C(=O)O)nc2nc(C3CCCCC3)n(C[C@H]3CC[C@H](C)CC3)c12)C1CCC1 [Example 21.38, 6-{[(1R)-1-cyclobutylethyl]amino}-8-cyclohexyl-7-[(trans-4-methylcyclohexyl)methyl]-7H-purine-2-carboxylic acid]  2.68 nM
6. C[C@@H](Nc1nc(-c2noc(=O)[nH]2)nc2nc(C3=CCCCC3)n(C[C@H]3CC[C@H](C)CC3)c12)C1CCC1 [Example 21.37, 3-(6-{[(1R)-1-cyclobutylethyl]amino}-8-cyclohex-1-en-1-yl-7-[(trans-4-methylcyclohexyl)methyl]-7H-purin-2-yl)-1,2,4-oxadiazol-5(4H)-one]  3.79 nM
7. C[C@@H](Nc1nc(-c2n[nH]c(=O)o2)nc2nc(C3CCCCC3)n(C[C@H]3CC[C@H](C)CC3)c12)C1CCC1 [Example 21.40, 5-(6-{[(1R)-1-cyclobutylethyl]amino}-8-cyclohexyl-7-[(trans-4-methylcyclohexyl)methyl]-7H-purin-2-yl)-1,3,4-oxadiazol-2(3H)-one]  4.29 nM
8. C[C@@H](Nc1nc(C(=O)O)nc2nc(C3CCCCC3c3ccccc3)n(C[C@H]3CC[C@H](C)CC3)c12)C1CCC1 (stereo partly drawn) [Example 21.17, 6-{[(1R)-1-cyclobutylethyl]amino}-7-[(trans-4-methylcyclohexyl)methyl]-8-(2-phenylcyclohexyl)-7H-purine-2-carboxylic acid]  4.3 nM
9. C[C@@H](Nc1nc(C(=O)O)nc2nc(C3CCCCC3c3ccccc3)n(Cc3ccc(C(F)(F)F)cc3)c12)C1CCC1 (stereo partly drawn) [Example 21.12, 6-{[(1R)-1-cyclobutylethyl]amino}-8-(2-phenylcyclohexyl)-7-[4-(trifluoromethyl)benzyl]-7H-purine-2-carboxylic acid]  4.57 nM
10. C[C@@H](Nc1nc(-c2noc(=O)[nH]2)nc2nc(C3=CCCC3)n(C[C@H]3CC[C@H](C)CC3)c12)C1CCC1 [Example 21.32, 3-(6-{[(1R)-1-cyclobutylethyl]amino}-8-cyclopent-1-en-1-yl-7-[(trans-4-methylcyclohexyl)methyl]-7H-purin-2-yl)-1,2,4-oxadiazol-5(4H)-one]  4.87 nM
11. C[C@@H](Nc1nc(C(=O)O)nc2nc(C3=C(c4ccccc4)CCCC3)n(Cc3ccc(C(F)(F)F)cc3)c12)C1CCC1 [Example 21.3, 6-{[(1R)-1-cyclobutylethyl]amino}-8-(2-phenylcyclohex-1-en-1-yl)-7-[4-(trifluoromethyl)benzyl]-7H-purine-2-carboxylic acid]  5.82 nM
12. C[C@@H](Nc1nc(C(=O)O)nc2nc(C3=C(c4ccccc4)CCCC3)n(C[C@H]3CC[C@H](C)CC3)c12)C1CCC1 [Example 21.18, 6-{[(1R)-1-cyclobutylethyl]amino}-7-[(trans-4-methylcyclohexyl)methyl]-8-(2-phenylcyclohex-1-en-1-yl)-7H-purine-2-carboxylic acid]  6.5 nM
13. C[C@@H](Nc1nc(C(=O)O)nc2nc(C3=C(c4ccccc4)CCC3)n(Cc3ccc(C(F)(F)F)cc3)c12)C1CCC1 [Example 21.4, 6-{[(1R)-1-cyclobutylethyl]amino}-8-(2-phenylcyclopent-1-en-1-yl)-7-[4-(trifluoromethyl)benzyl]-7H-purine-2-carboxylic acid]  6.99 nM
14. CC(c1nc2nc(-c3noc(=O)[nH]3)nc(N[C@H](C)C3CCC3)c2n1C[C@H]1CC[C@H](C)CC1)C1CCOCC1 (stereo partly drawn) [Example 21.21, 3-(6-{[(1R)-1-cyclobutylethyl]amino}-7-[(trans-4-methylcyclohexyl)methyl]-8-[1-(tetrahydro-2H-pyran-4-yl)ethyl]-7H-purin-2-yl)-1,2,4-oxadiazol-5(4H)-one]  7.17 nM
15. C[C@@H](Nc1nc(-c2noc(=O)[nH]2)nc2nc(C3CCCC3)n(C[C@H]3CC[C@H](C)CC3)c12)C1CCC1 [Example 21.34, 3-(6-{[(1R)-1-cyclobutylethyl]amino}-8-cyclopentyl-7-[(trans-4-methylcyclohexyl)methyl]-7H-purin-2-yl)-1,2,4-oxadiazol-5(4H)-one]  7.76 nM
16. C[C@@H](Nc1nc(-c2noc(=O)[nH]2)nc2nc(C3CCCCC3)n(C[C@H]3CC[C@H](C)CC3)c12)C1CCC1 [Example 21.39, 3-(6-{[(1R)-1-cyclobutylethyl]amino}-8-cyclohexyl-7-[(trans-4-methylcyclohexyl)methyl]-7H-purin-2-yl)-1,2,4-oxadiazol-5(4H)-one]  7.87 nM
17. C[C@@H](Nc1nc(-c2noc(=O)[nH]2)nc2nc(CCc3ccccc3)n(C[C@H]3CC[C@H](C)CC3)c12)C1CCC1 [Example 21.24, 3-[6-{[(1R)-1-cyclobutylethyl]amino}-7-[(trans-4-methylcyclohexyl)methyl]-8-(2-phenylethyl)-7H-purin-2-yl]-1,2,4-oxadiazol-5(4H)-one]  8.02 nM
18. C[C@@H](Nc1nc(C(=O)O)nc2nc(C3CCCC(=O)C3c3ccccc3)n(Cc3ccc(C(F)(F)F)cc3)c12)C1CCC1 (stereo partly drawn) [Example 21.11, 6-{[(1R)-1-cyclobutylethyl]amino}-8-(3-oxo-2-phenylcyclohexyl)-7-[4-(trifluoromethyl)benzyl]-7H-purine-2-carboxylic acid]  8.72 nM
19. CC(c1ccc(F)cc1)c1nc2nc(-c3noc(=O)[nH]3)nc(N[C@H](C)C3CCC3)c2n1C[C@H]1CC[C@H](C)CC1 (stereo partly drawn) [Example 21.31, 3-(6-{[(1R)-1-cyclobutylethyl]amino}-8-[1-(4-fluorophenyl)ethyl]-7-[(trans-4-methylcyclohexyl)methyl]-7H-purin-2-yl)-1,2,4-oxadiazol-5(4H)-one]  10.5 nM
20. C[C@@H](Nc1nc(-c2noc(=O)[nH]2)nc2nc(C3=C(c4ccccc4)CCCC3)n(C[C@H]3CC[C@H](C)CC3)c12)C1CCC1 [Example 21.16, 3-[6-{[(1R)-1-cyclobutylethyl]amino}-7-[(trans-4-methylcyclohexyl)methyl]-8-(2-phenylcyclohex-1-en-1-yl)-7H-purin-2-yl]-1,2,4-oxadiazol-5(4H)-one]  12.2 nM
21. C[C@@H](Nc1nc(-c2noc(=O)[nH]2)nc2nc(C3CC3)n(C[C@H]3CC[C@H](C)CC3)c12)C1CCC1 [Example 21.27, 3-(6-{[(1R)-1-cyclobutylethyl]amino}-8-cyclopropyl-7-[(trans-4-methylcyclohexyl)methyl]-7H-purin-2-yl)-1,2,4-oxadiazol-5(4H)-one]  18 nM
22. Cc1nc2nc(C(=O)O)nc(N[C@H](C)C3CCC3)c2n1C[C@H]1CC[C@H](C)CC1 [Example 21.9, 6-{[(1R)-1-cyclobutylethyl]amino}-8-methyl-7-[(trans-4-methylcyclohexyl)methyl]-7H-purine-2-carboxylic acid]  101 nM

Same assay, conditions: Table 22; read-out: FRET IC50

In order of falling IC50:
1. C[C@@H](Nc1nc(-c2noc(=O)[nH]2)nc2nc(C(C)(O)C(C)(C)C)n(C[C@H]3CC[C@H](C)CC3)c12)C1CCC1 (stereo partly drawn) [Example 22.2, 3-(6-{[(1R)-1-cyclobutylethyl]amino}-8-(1-hydroxy-1,2,2-trimethylpropyl)-7-[(trans-4-methylcyclohexyl)methyl]-7H-purin-2-yl)-1,2,4-oxadiazol-5(4H)-one]  10.6 nM
2. C[C@@H](Nc1nc(-c2noc(=O)[nH]2)nc2nc(C(=O)C(C)(C)C)n(C[C@H]3CC[C@H](C)CC3)c12)C1CCC1 [Example 22.1, 3-(6-{[(1R)-1-cyclobutylethyl]amino}-8-(2,2-dimethylpropanoyl)-7-[(trans-4-methylcyclohexyl)methyl]-7H-purin-2-yl)-1,2,4-oxadiazol-5(4H)-one]  4.65 nM
